Reference: patent US9458124B2, “Substituted pyran derivatives” (Wayne State University, priority 2013, dated 2016)
Counter-ions that a name gives are not always drawn.

Tests used:
[1] = biological target: T1, DAT (Rattus norvegicus, UniProt P23977); assay: DAT uptake inhibition, [3H]DA, rat brain; type: biochemical; conditions: number in parentheses within cell
T1 construct: from tissue; host or cells: rat brain

[2] = biological target: T2, SERT (Rattus norvegicus, UniProt P31652); assay: SERT uptake inhibition, [3H]-5-HT, rat brain; type: biochemical; conditions: number in parentheses within cell
T2 construct: from tissue; host or cells: rat brain

[3] = biological target: T3, NET (Rattus norvegicus, UniProt Q63380); assay: NET uptake inhibition, [3H]DA, rat brain; type: biochemical; conditions: number in parentheses within cell
T3 construct: from tissue; host or cells: rat brain
T3 sequence (Q63380 1-617): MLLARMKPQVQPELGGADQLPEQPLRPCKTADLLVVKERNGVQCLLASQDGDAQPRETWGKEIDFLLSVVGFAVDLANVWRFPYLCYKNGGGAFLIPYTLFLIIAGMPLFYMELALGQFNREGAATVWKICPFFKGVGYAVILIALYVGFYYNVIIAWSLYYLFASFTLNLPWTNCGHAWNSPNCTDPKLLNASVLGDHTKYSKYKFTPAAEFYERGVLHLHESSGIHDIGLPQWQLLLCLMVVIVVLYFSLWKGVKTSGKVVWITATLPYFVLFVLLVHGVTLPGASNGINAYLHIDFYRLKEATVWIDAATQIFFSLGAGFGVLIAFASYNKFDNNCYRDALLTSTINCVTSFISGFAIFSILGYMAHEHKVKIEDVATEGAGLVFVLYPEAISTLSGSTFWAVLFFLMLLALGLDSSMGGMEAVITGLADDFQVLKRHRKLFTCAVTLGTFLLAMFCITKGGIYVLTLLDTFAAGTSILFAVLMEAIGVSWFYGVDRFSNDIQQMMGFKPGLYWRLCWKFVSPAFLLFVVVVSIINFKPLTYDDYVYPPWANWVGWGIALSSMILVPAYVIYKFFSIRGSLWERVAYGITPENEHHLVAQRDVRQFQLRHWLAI

T2 sequence (P31652 whole entry): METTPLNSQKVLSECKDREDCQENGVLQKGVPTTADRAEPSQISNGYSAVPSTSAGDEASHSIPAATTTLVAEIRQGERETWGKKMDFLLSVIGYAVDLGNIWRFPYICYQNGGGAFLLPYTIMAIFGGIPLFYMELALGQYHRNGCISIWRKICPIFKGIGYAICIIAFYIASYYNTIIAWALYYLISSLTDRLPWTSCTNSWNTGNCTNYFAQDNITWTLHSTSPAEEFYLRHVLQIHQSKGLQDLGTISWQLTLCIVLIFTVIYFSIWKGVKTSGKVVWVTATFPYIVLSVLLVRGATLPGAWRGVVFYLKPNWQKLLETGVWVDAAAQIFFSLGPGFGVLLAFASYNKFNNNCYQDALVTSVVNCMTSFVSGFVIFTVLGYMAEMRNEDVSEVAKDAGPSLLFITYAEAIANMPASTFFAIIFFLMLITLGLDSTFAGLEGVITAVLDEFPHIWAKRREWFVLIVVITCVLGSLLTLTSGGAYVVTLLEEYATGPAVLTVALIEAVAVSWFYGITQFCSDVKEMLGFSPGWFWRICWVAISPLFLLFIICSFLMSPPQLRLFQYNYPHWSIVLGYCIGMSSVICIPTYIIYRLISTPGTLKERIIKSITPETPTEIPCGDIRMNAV
T1 sequence (P23977 whole entry): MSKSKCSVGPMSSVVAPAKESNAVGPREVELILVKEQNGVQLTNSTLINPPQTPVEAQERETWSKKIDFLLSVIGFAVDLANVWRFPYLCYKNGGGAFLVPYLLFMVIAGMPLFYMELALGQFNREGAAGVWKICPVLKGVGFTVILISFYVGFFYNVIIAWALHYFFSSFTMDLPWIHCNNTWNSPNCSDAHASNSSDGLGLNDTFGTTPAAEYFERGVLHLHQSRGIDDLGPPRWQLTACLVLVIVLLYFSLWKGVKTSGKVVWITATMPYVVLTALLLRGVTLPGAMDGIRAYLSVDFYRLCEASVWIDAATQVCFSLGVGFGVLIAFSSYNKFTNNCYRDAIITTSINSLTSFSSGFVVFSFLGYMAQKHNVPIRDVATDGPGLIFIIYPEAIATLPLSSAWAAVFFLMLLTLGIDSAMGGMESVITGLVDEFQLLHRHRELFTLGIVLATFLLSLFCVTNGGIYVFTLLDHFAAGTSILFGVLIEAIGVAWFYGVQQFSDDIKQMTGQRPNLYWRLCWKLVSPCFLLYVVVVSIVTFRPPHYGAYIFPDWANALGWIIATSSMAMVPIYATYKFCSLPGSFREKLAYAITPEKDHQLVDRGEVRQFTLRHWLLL

In the case of `c1ccc(C(c2ccccc2)[C@@H]2CC[C@H](NCc3ccc4occc4c3)CO2)cc1` (as salt: hydrochloride) [2a, D-484, (3S,6S)-6-benzhydryl-N-(benzofuran-5-ylmethyl)tetrahydro-2H-pyran-3-amine], the melting point is reported as 140 to 142 °C.
`O[C@@H]1C[C@@H](C(c2ccccc2)c2ccccc2)OC[C@H]1NCc1ccc2occc2c1` (as salt: hydrochloride) [4a, D-485, (2S,4R,5R)-2-benzhydryl-5-((benzofuran-5-ylmethyl)amino)tetrahydro-2H-pyran-4-ol] gave a melting point of 204 to 206 °C.
`COc1cc(CN[C@@H]2CO[C@H](C(c3ccccc3)c3ccccc3)C[C@H]2O)ccc1O` (as salt: hydrochloride) [4c, D-501, (2S,4R,5R)-2-benzhydryl-5-((4-hydroxy-3-methoxybenzyl)amino)tetrahydro-2H-pyran-4-ol] showed a melting point of 203 to 205 °C.
With `COc1ccc(CN[C@@H]2CO[C@H](C(c3ccccc3)c3ccccc3)C[C@H]2O)cc1O` (as salt: hydrochloride) [4d, D-502, (2S,4R,5R)-2-benzhydryl-5-((3-hydroxy-4-methoxybenzyl)amino)tetrahydro-2H-pyran-4-ol] the melting point was 168 to 170 °C.
`COc1cc(O)cc(CN[C@@H]2CO[C@H](C(c3ccccc3)c3ccccc3)C[C@H]2O)c1` (as salt: hydrochloride) [4e, D-503, (2S,4R,5R)-2-benzhydryl-5-((3-hydroxy-5-methoxybenzyl)amino)tetrahydro-2H-pyran-4-ol] gave a melting point of 160 to 162 °C.
With `Oc1cc(O)cc(CN[C@@H]2CO[C@H](C(c3ccccc3)c3ccccc3)C[C@H]2O)c1` (as salt: hydrochloride) [4f, D-542, 5-((((3R,4R,6S)-6-benzhydryl-4-hydroxytetrahydro-2H-pyran-3-yl)amino)methyl)benzene-1,3-diol] the melting point was 168 to 170 °C.
Work on `COc1cccc(CN[C@@H]2CO[C@H](C(c3ccccc3)c3ccccc3)C[C@H]2O)c1` (as salt: hydrochloride) [4g, D-523, (2S,4R,5R)-2-benzhydryl-5-((3-methoxybenzyl)amino)tetrahydro-2H-pyran-4-ol] yielded a melting point of 197 to 199 °C.
Work on `c1ccc(C(c2ccccc2)[C@@H]2CC[C@H](NCc3ccc4cc[nH]c4c3)CO2)cc1` (as salt: oxalate) [2b, D-543] yielded a melting point of 194 to 196 °C.
`O[C@@H]1C[C@@H](C(c2ccccc2)c2ccccc2)OC[C@H]1NCc1ccc2cc[nH]c2c1` (as salt: oxalate) [4b, D-544, (2S,4R,5R)-5-(((1H-indol-6-yl)methyl)amino)-2-benzhydryltetrahydro-2H-pyran-4-ol] gave a melting point of 152 to 154 °C.
For `c1ccc(C(c2ccccc2)[C@@H]2CC[C@H](NCc3ccc4occc4c3)CO2)cc1` [2a, D-484, (3S,6S)-6-benzhydryl-N-(benzofuran-5-ylmethyl)tetrahydro-2H-pyran-3-amine], the Ki [1] was 81.9 ± 17.9 nM, the Ki [2] was 0.71 ± 0.085 nM and the Ki [3] was 25.2 ± 5.3 nM.
`c1ccc(C(c2ccccc2)[C@@H]2CC[C@H](NCc3ccc4cc[nH]c4c3)CO2)cc1` [2b, D-543] showed a Ki [1] of 56.3 ± 1.1 nM, a Ki [2] of 13.6 ± 1.6 nM and a Ki [3] of 20.8 ± 4.6 nM.
In the case of `O[C@@H]1C[C@@H](C(c2ccccc2)c2ccccc2)OC[C@H]1NCc1ccc2occc2c1` [4a, D-485, (2S,4R,5R)-2-benzhydryl-5-((benzofuran-5-ylmethyl)amino)tetrahydro-2H-pyran-4-ol], the Ki [1] is reported as 234 ± 11 nM, the Ki [2] is reported as 2.68 ± 0.094 nM and the Ki [3] is reported as 33.6 ± 18.7 nM.
In the case of `O[C@@H]1C[C@@H](C(c2ccccc2)c2ccccc2)OC[C@H]1NCc1ccc2cc[nH]c2c1` [4b, D-544, (2S,4R,5R)-5-(((1H-indol-6-yl)methyl)amino)-2-benzhydryltetrahydro-2H-pyran-4-ol], the Ki [1] is reported as 64 ± 6.1 nM, the Ki [2] is reported as 9.6 ± 2.57 nM and the Ki [3] is reported as 10 ± 3.5 nM.
Molecule `COc1cc(CN[C@@H]2CO[C@H](C(c3ccccc3)c3ccccc3)C[C@H]2O)ccc1O` [4c, D-501, (2S,4R,5R)-2-benzhydryl-5-((4-hydroxy-3-methoxybenzyl)amino)tetrahydro-2H-pyran-4-ol] has a Ki [1] of 167 ± 36 nM.
With `COc1ccc(CN[C@@H]2CO[C@H](C(c3ccccc3)c3ccccc3)C[C@H]2O)cc1O` [4d, D-502, (2S,4R,5R)-2-benzhydryl-5-((3-hydroxy-4-methoxybenzyl)amino)tetrahydro-2H-pyran-4-ol] the Ki [1] was 58.6 ± 11.8 nM and the Ki [2] was 281 ± 37 nM.
Molecule `COc1cc(O)cc(CN[C@@H]2CO[C@H](C(c3ccccc3)c3ccccc3)C[C@H]2O)c1` [4e, D-503, (2S,4R,5R)-2-benzhydryl-5-((3-hydroxy-5-methoxybenzyl)amino)tetrahydro-2H-pyran-4-ol] has a Ki [1] of 209 ± 25 nM and a Ki [2] of 385 ± 42 nM.
With `Oc1cc(O)cc(CN[C@@H]2CO[C@H](C(c3ccccc3)c3ccccc3)C[C@H]2O)c1` [4f, D-542, 5-((((3R,4R,6S)-6-benzhydryl-4-hydroxytetrahydro-2H-pyran-3-yl)amino)methyl)benzene-1,3-diol] the Ki [1] was 259 ± 44 nM, the Ki [2] was 3020 nM and the Ki [3] was 152 ± 29 nM.
`COc1cccc(CN[C@@H]2CO[C@H](C(c3ccccc3)c3ccccc3)C[C@H]2O)c1` [4g, D-523, (2S,4R,5R)-2-benzhydryl-5-((3-methoxybenzyl)amino)tetrahydro-2H-pyran-4-ol] showed a Ki [1] of 376 ± 68 nM, a Ki [2] of 27.2 ± 3 nM and a Ki [3] of 5.85 ± 1.27 nM.
Work on `COc1ccc(CN[C@@H]2CO[C@H](C(c3ccc(F)cc3)c3ccc(F)cc3)C[C@H]2O)cc1` [6a, D-473, (2S,4R,5R)-2-(bis(4-fluorophenyl)methyl)-5-((4-methoxybenzyl)amino)tetrahydro-2H-pyran-4-ol] yielded a Ki [1] of 13.3 ± 2 nM, a Ki [2] of 46.7 ± 17 nM and a Ki [3] of 13.2 ± 3.5 nM.
Work on `O[C@@H]1C[C@@H](C(c2ccc(F)cc2)c2ccc(F)cc2)OC[C@H]1NCc1ccc2c(c1)OCO2` [6b, D-506, (2S,4R,5R)-5-((benzo[d][1,3]dioxol-5-ylmethyl)amino)-2-(bis(4-fluorophenyl)methyl)tetrahydro-2H-pyran-4-ol] yielded a Ki [1] of 37 ± 7.5 nM.
Work on `O[C@@H]1C[C@@H](C(c2ccc(F)cc2)c2ccc(F)cc2)OC[C@H]1NCc1ccc2c(c1)CCO2` [6c, D-507, (2S,4R,5R)-2-(bis(4-fluorophenyl)methyl)-5-(((2,3-dihydrobenzofuran-5-yl)methyl)amino)tetrahydro-2H-pyran-4-ol] yielded a Ki [1] of 17 nM, a Ki [2] of 54 ± 7.8 nM and a Ki [3] of 25.8 ± 5 nM.
`O[C@@H]1C[C@@H](C(c2ccc(F)cc2)c2ccc(F)cc2)OC[C@H]1NCc1ccc2occc2c1` [6d, D-508, (2S,4R,5R)-5-((benzofuran-5-ylmethyl)amino)-2-(bis(4-fluorophenyl)methyl)tetrahydro-2H-pyran-4-ol] gave a Ki [1] of 29.3 ± 2.4 nM, a Ki [2] of 68.4 ± 11.4 nM and a Ki [3] of 26.5 ± 6.6 nM.
In the case of `COc1cccc(CN[C@@H]2CO[C@H](C(c3ccc(F)cc3)c3ccc(F)cc3)C[C@H]2O)c1` [6e, D-524, (2S,4R,5R)-2-(bis(4-fluorophenyl)methyl)-5-((3-methoxybenzyl)amino)tetrahydro-2H-pyran-4-ol], the Ki [1] is reported as 56.8 ± 7.6 nM and the Ki [2] is reported as 129 ± 25 nM.
Molecule `COc1cc(O)cc(CN[C@@H]2CO[C@H](C(c3ccc(F)cc3)c3ccc(F)cc3)C[C@H]2O)c1` [6g, D-526, (2S,4R,5R)-2-(bis(4-fluorophenyl)methyl)-5-((3-hydroxy-5-methoxybenzyl)amino)tetrahydro-2H-pyran-4-ol] has a Ki [1] of 25.6 ± 5.8 nM and a Ki [2] of 577 ± 94 nM.
For `COc1cc(CN[C@@H]2CO[C@H](C(c3ccc(F)cc3)c3ccc(F)cc3)C[C@H]2O)ccc1O` [6h, D-527, (2S,4R,5R)-2-(bis(4-fluorophenyl)methyl)-5-((4-hydroxy-3-methoxybenzyl)amino)tetrahydro-2H-pyran-4-ol], the Ki [1] was 8.94 ± 2.2 nM and the Ki [2] was 107 ± 11 nM.
With `COc1ccc(CN[C@@H]2CO[C@H](C(c3ccc(F)cc3)c3ccc(F)cc3)C[C@H]2O)cc1O` [6i, D-528, (2S,4R,5R)-2-(bis(4-fluorophenyl)methyl)-5-((3-hydroxy-4-methoxybenzyl)amino)tetrahydro-2H-pyran-4-ol] the Ki [1] was 7.94 ± 0.66 nM and the Ki [2] was 367 ± 52 nM.
`Nc1ccc(CN[C@@H]2CO[C@H](C(c3ccc(F)cc3)c3ccc(F)cc3)C[C@H]2O)cc1` [6k, D-529, (2S,4R,5R)-5-((4-aminobenzyl)amino)-2-(bis(4-fluorophenyl)methyl) tetrahydro-2H-pyran-4-ol] gave a Ki [1] of 24.5 ± 1.2 nM and a Ki [2] of 339 ± 39 nM.
For `CCNc1ccc(CN[C@@H]2CO[C@H](C(c3ccc(F)cc3)c3ccc(F)cc3)C[C@H]2O)cc1` [6m, D-530, (2S,4R,5R)-2-(bis(4-fluorophenyl)methyl)-5-((4-(ethylamino)benzyl)amino) tetrahydro-2H-pyran-4-ol], the Ki [2] was 320 ± 40 nM.
In the case of `Oc1ccc(CN[C@@H]2CO[C@H](C(c3ccc(F)cc3)c3ccc(F)cc3)C[C@H]2O)cc1F` [6n, D-531, (2S,4R,5R)-2-(bis(4-fluorophenyl)methyl)-5-((3-fluoro-4-hydroxybenzyl)amino) tetrahydro-2H-pyran-4-ol], the Ki [2] is reported as 334 ± 54 nM.
Molecule `CN(C)c1ccc(CN[C@@H]2CO[C@H](C(c3ccc(F)cc3)c3ccc(F)cc3)C[C@H]2O)cc1` [6o, D-536, (2S,4R,5R)-2-(bis(4-fluorophenyl)methyl)-5-((4-(dimethylamino)benzyl)amino)tetrahydro-2H-pyran-4-ol] has a Ki [1] of 41.3 ± 9.7 nM, a Ki [2] of 144 ± 26 nM and a Ki [3] of 56.6 ± 5.2 nM.
`COc1ccc(CN[C@@H]2CO[C@H](C(c3ccc(F)cc3)c3ccc(F)cc3)C[C@H]2O)cn1` [6p, D-537, (2S,4R,5R)-2-(bis(4-fluorophenyl)methyl)-5-(((6-methoxypyridin-3-yl)methyl)amino)tetrahydro-2H-pyran-4-ol] showed a Ki [1] of 20.1 ± 5.3 nM, a Ki [2] of 258 ± 26 nM and a Ki [3] of 28.4 ± 4 nM.
